Literature values in patent publication US10849879B2, “Localized modulation of tissues and cells to enhance therapeutic effects including renal denervation” (Mercator MedSystems, Inc., priority 2011, dated 2020).
“And” between values parts separate entries of the source, which are not always exact repeats. Identical values can stand only once.

Tested on: axon

Substance: (2-(Hexahydro-1(2H)-azocinyl)ethyl)guanidine sulfate (1:1) [guanethidine monosulfate]
- concentrations producing axon retraction in vitro: ≥ 0.2 mM and ≥ 60 μg/mL
